We go through 10 molecules from patent US20060173183A1, “Multicyclic bis-amide MMP inhibitors” (Alantos Pharmaceuticals, Inc.,, priority 2004, published 2006).

Each structure is given as a SMILES string.

The target of the assay is MMP-13 (Homo sapiens, UniProt P45452). The experiment in a line: Assay for determining MMP-13 inhibition (fluorogenic substrate). The assay is classed as biochemical. Particulars: Table 1, Summary of MMP-13 Activity for Compounds of Formula I; bounds only. How it is done: The MMP-13 inhibiting activity of the multicyclic bis-amide MMP-13 inhibiting compounds of the present invention may be measured using any suitable assay known in the art. A standard in vitro assay for MMP-13 inhibiting activity is described in Example 3000.
Assay for Determining MMP-13 Inhibition
The typical assay for MMP-13 activity is carried out in assay buffer comprised of 50 mM Tris, pH 7.5, 150 mM NaCl, 5 mM CaCl2 and 0.05% Brij-35. Different concentrations of tested compounds are prepared in assay buffer in 50 μL aliquots. 10 μL of 40 nM stock solution of MMP-13 enzyme is added to the compound solution. The mixture of enzyme and compound in assay buffer is thoroughly mixed and incubated for 20 minutes at room temperature. Upon the completion of incubation, the assay is started by addition of 40 μL of 12.5 μM stock solution of MMP-13 fluorogenic substrate (Calbiochem Cat. No. 444235). The time-dependent increase in fluorescence is measured at the 325 nm excitation and 393 nm emission by automatic plate multireader. The IC50 values are calculated from the initial reaction rates. Selectivity assays were run in a similar manner using MMP-1, MMP-14 and TACE.
For `Cc1cc(CNC(=O)c2cc(C(=O)NC3CCc4cc(-c5nnn[nH]5)ccc43)ncn2)ccc1F` (stereo not shown) [Ex. 1], the IC50 is > 5 nM.

Consider `Cc1cc(CNC(=O)c2cc(C(=O)N[C@H]3CCc4cc(C(=O)O)ccc43)nc(N)n2)ccc1F` [Ex. 2702], for which the IC50 was < 5 nM.

Take `COc1cccc(CNC(=O)c2cc(C(=O)N[C@H]3CCc4cc(-c5nnn[nH]5)ccc43)ncn2)c1` [Ex. 2308]: the IC50 was > 5 nM.

As for `Cc1cc(CNC(=O)c2cc(C(=O)N[C@H]3CCc4c3ccc(C(=O)O)c4C)ncn2)ccc1F` [Ex. 2522], the IC50 was < 5 nM.

For `COc1cc(CNC(=O)c2cc(C(=O)N[C@H]3CCc4c3ccc(C(=O)O)c4C)ncn2)ccc1F` [Ex. 2562], the IC50 is < 5 nM.

For `Cc1c(-c2nnn[nH]2)ccc2c1CC[C@@H]2NC(=O)c1cc(C(=O)NCc2ccc3c(c2)CN(c2c(N)c(=O)c2=O)CC3)ncn1` [Ex. 2328], the IC50 was < 5 nM.

Consider `COc1cccc(CNC(=O)c2cc(C(=O)N[C@H]3CCc4cc(-c5noc(=O)[nH]5)ccc43)ncn2)c1` [Ex. 2407], for which the IC50 was < 5 nM.

Regarding `Cc1cc(CNC(=O)c2cc(C(=O)N[C@H]3CCc4cc(-c5nnn[nH]5)ccc43)ncn2)ccc1F` [Ex. 2303], the IC50 was > 5 nM.

For `Cc1cc(CNC(=O)c2cc(C(=O)NC3CCCc4cc(-c5nnn[nH]5)ccc43)ncn2)ccc1F` (stereo not shown) [Ex. 2301], the IC50 was > 5 nM.

`Cc1c(C(=O)O)ccc2c1CC[C@@H]2NC(=O)c1cc(C(=O)NCc2ccc3c(c2)CN(c2c(N)c(=O)c2=O)CC3)ncn1` [Ex. 2539]: the half-maximal inhibitory concentration (IC50) was < 5 nM.

In general, IC50 refers to the concentration at which inhibition is half-maximal. Lower therefore signals greater potency in that assay.
